Patent US11591369B2, “Alpha(v)beta(6) integrin-binding peptides and methods of use thereof” (priority 2018, dated 2023)
Like-named read-outs stand apart in the source and are kept apart here. Where a SMILES comes first, the peptide text is derived from it. The star is where a group is joined. Benzoyl(4-F) = O=C(c1ccc(F)cc1)*

Key:
[1] = target: T1, αvβ6 integrin (Homo sapiens, UniProt P06756+P18564); assay: Competitive binding ELISA against biotinylated LAP (BtLAP), αvβ6 integrin
T1 construct: All purified integrins were purchased from R&D Systems (MN, USA); purchased R&D Systems (MN, USA)

[2] = target: T2, αvβ3 integrin (Homo sapiens, UniProt P05106+P06756); assay: Competitive binding ELISA, αvβ3 integrin
T2 construct: All purified integrins were purchased from R&D Systems (MN, USA); purchased R&D Systems (MN, USA)

[3] = target: T3, αvβ8 integrin (Homo sapiens, UniProt P06756+P26012); assay: Competitive binding ELISA, αvβ8 integrin
T3 construct: All purified integrins were purchased from R&D Systems (MN, USA); purchased R&D Systems (MN, USA)

[4] = test system: DX3puroβ6 (αvβ6+) cells; assay: [18F]-radiolabeled peptide cell binding and internalization, DX3puroβ6 (αvβ6+) cells; type: cell-based, human
[5] = Circular dichroism (CD) spectroscopy; type: physicochemical; conditions: for % Helical Content CD Buffer: 25 mM phosphate + 100 mM NaF; for % Helical Content CD Buffer + 30% TFE: buffer with 30% trifluoroethanol
[6] = test system: αvβ6-expressing human tumors; conditions: mouse, in vivo; cited from earlier work

Compound | IC50 [1] [nM] | IC50 [2] [nM] | IC50 [3] [nM] | DX3puroβ6 (αvβ6+)/DX3puro (αvβ6−) selectivity ratio ([4]; cell binding, 1 hour) | % Helical Content CD Buffer [5] [%] | % Helical Content CD Buffer + 30% TFE [5] [%] | binding to DX3puroβ6 (αvβ6+) cells ([4]; % of total activity, 1 hour, 37° C.) [%] | DX3puroβ6 (αvβ6+)/DX3puro (αvβ6−) selectivity ratio [4] | unmetabolized peptide in urine [6]
CC(C)C[C@H](NC(=O)[C@H](CC(=O)O)NC(=O)CNC(=O)[C@H](CCCNC(=N)N)NC(=O)c1ccc(F)cc1)C(=O)N[C@@H](C)C(=O)N[C@@H](CC(=O)O)C(=O)N[C@@H](CC(C)C)C(=O)N[C@@H](CCCNC(=N)N)C(=O)N[C@@H](CCC(N)=O)C(=O)N[C@@H](CCCCN)C(=O)N[C@H](C(=O)N[C@@H](C)C(=O)N[C@@H](CCCNC(=N)N)C(=O)N[C@H](C(N)=O)[C@@H](C)O)C(C)C [P3Q] ({Benzoyl(4-F)}-RGDLADLRQKVART-NH2) | 4 ± 1 | > 100000 | 20 ± 3 | 11.8 ± 0.4:1 | 14.7 | 30 |  |  | 
CC(C)C[C@H](NC(=O)[C@H](CC(=O)O)NC(=O)CNC(=O)[C@@H](N)CCCNC(=N)N)C(=O)N[C@@H](C)C(=O)N[C@@H](CC(=O)O)C(=O)N[C@@H](CC(C)C)C(=O)N[C@@H](CCCNC(=N)N)C(=O)N[C@@H](CCCCNC(=O)c1ccc(F)cc1)C(N)=O [P3] (H-RGDLADLRK(Benzoyl(4-F))-NH2) | 420 ± 70 | > 100000 | 200 ± 20 | 1.4±0.2 :1 | 11.6 | 7 | 10.8±1.4 |  | 
FB-NAVPNLRGDLQVLAQKVART [A20FMDV2, reference compound] |  |  |  |  |  |  |  | 10:1 | no unmetabolized peptide was detected
